The values below come from US6730792B2, “β3 adrenergic agonists” (Eli Lilly and Company, priority 2000, dated 2004).

The assay has as its target T1, human β3 adrenergic receptor (Homo sapiens, UniProt P13945).
T1 construct: expressed in transfected cells; host or cells: DXB-11 Chinese hamster ovary (CHO) cell line, stably transfected (phd expression vector)
Put plainly: whole cell receptor coupled c-AMP assay, human β3 receptor in CHO cells (EC50, Emax relative to isoproterenol). The assay is classed as cell-based. An excerpt:
The genes encoding the human β1-adrenergic receptor (Frielle et al., Proc. Natl. Acad. Sci., 84:7920-7924, 1987), the human β2-adrenergic receptor (Kobika et al., Proc. Natl. Acad. Sci., 84:46-50, 1987, Emorine et al., Proc. Natl. Acad. Sci., 84:6995-6999, 1987) and the human β3 adrenergic receptor (Granneman et al., Molecular Pharmacology, 44(2):264-70, 1993) are individually subcloned into a phd expression vector (Grinnell et al., Bio/Technology, 5:1189-1192, 1987) and transfected into the DXB-11 Chinese hamster ovary (CHO) cell line by calcium phosphate precipitation methodology. The stably transfected cells are grown to 95% confluency in 95% Dulbecco's modified Eagles Medium (DMEM), 5% fetal bovine serum and 0.01% proline. Media is removed and the cells are washed with phosphate buffered (pH 7.4) saline (without magnesium and calcium). Cells are then lifted using an enzyme free cell dissociation solution (Specialty Media, Lavallette, N.J.) and pelleted by centrifugation.
Cells from each of the above cell lines are resuspended and added (20,000/well) to a 96-well plate. Cells are incubated at 37° C. with representative compounds of the invention for 20 minutes in buffer (Hank's balanced salt solution, 10 mM HEPES, 0.1% BSA, 1 mM L-ascorbic acid, 0.2% dimethyl sulfoxide, 1 mm 3-isobutyl-1-methylxanthine, pH 7.4). After halting the incubation with quench buffer (50 mM Na Acetate, 0.25% Triton X-100, pH 5.8), the c-AMP level is quantified by scintillation proximity assay (SPA) using a modification of the commercially available c-AMP kit (Amersham, Arlington Heights, Ill.) with rabbit anti-cAMP antibody (ICN Biomedicals, Aurora, Ohio) for the kit.
Sigmoidal dose response curves, from the whole cell receptor coupled c-AMP assay are fit to a four parameter logistic equation using non linear regression: y=(a−d)/(1+(Dose/c)^b)+d where a and d are responses at zero and maximal dose, b is the slope factor and c is the EC50 as previously described (DeLean et al., Am. J. Physiol., 235, E97-E102, 1978). EC50 is assessed as the concentration producing 50% of the maximum response to each agonist.
Isoproterenol is accepted in the art as a non-selective β3 agonist and is widely used as a comparator in evaluating the activity of compounds. See Trends in Pharm. Sci., 15:3, 1994. The % intrinsic activity (Emax) of representative compounds of the invention is assessed relative to isoproterenol by the compound's maximal response divided by the isoproterenol maximal response times 100.

Where [1] appears, read: Emax ± standard error of the mean, average of at least 3 runs except where n = 1, compound tested in the isolated form listed.
[2] abbreviates: Emax ± SEM, average of at least 3 runs except as otherwise indicated, tested as the isolated form listed.
[3] abbreviates: % intrinsic activity relative to isoproterenol maximal response, average of at least 3 runs, c-AMP in transfected CHO cells.

T1 sequence (P13945 whole entry): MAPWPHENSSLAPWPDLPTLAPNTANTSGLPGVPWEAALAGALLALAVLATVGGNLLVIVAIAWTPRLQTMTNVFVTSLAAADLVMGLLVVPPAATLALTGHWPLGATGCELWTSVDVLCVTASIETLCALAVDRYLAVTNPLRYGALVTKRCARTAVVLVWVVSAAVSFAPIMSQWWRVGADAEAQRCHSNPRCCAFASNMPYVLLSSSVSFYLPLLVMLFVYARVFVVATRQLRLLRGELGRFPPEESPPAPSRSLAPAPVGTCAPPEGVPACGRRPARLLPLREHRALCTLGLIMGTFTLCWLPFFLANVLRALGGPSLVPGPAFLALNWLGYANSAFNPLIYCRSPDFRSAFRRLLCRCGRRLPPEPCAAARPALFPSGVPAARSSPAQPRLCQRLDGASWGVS

In the case of `CC(C)(Cc1ccc(Oc2ccc(S(C)(=O)=O)cc2)cc1)NC[C@H](O)COc1ccccc1-c1nccs1` [Example 130], the “Emax (%) ± SEM” value under setting [1] is on record as 49.5 ± 3.4%.

On to `CC(C)(Cc1ccc(Oc2ccc(C(N)=O)cn2)cc1)NC[C@H](O)COc1ccccc1-c1ccno1` [Example 18], for which the “Emax (%) ± SEM” value under setting [1] amounted to 49.1 ± 2.9%.

As for `CC(C)(Cc1ccc(Oc2ccc(Cl)nn2)cc1)NC[C@H](O)COc1ccccc1-c1cccs1.O=C(O)C(F)(F)F` [Example 208], the “Emax (%) ± SEM” value under setting [1] came out at 92.4 ± 7.3%.

Take `CC(C)(Cc1ccc(Oc2ncccc2C(N)=O)cc1)NC[C@H](O)COc1ccccc1N1CCCCC1.Cl.Cl` [Example 79]: under setting [1], the “Emax (%) ± SEM” value worked out at 21.3 ± 3.3%.

`COC(=O)c1ccc(Oc2ccc(CC(C)(C)NC[C@H](O)COc3ccccc3-c3ccn(C)n3)cc2)c(Cl)c1` [Example 138]: the “Emax (%) ± SEM” value under setting [1] amounted to 41.7 n = 1%.

For `CC(C)(Cc1ccc(Oc2cccnc2C#N)cc1)NC[C@H](O)COc1ccccc1-c1ccoc1.Cl` [Example 307], the “Emax (%) ± SEM” value under setting [2] was 74.4 ± 1.8%.

Take `CC(C)(Cc1ccc(Oc2ccc(C(N)=O)cc2F)cc1)NC[C@H](O)COc1ccccc1-c1nccs1.O=C(O)C(F)(F)F` [Example 191]: under setting [1], the “Emax (%) ± SEM” value was 49.5 ± 1.5%.

Take `CC(C)(Cc1ccc(Oc2ccc(S(C)(=O)=O)cc2)cc1)NC[C@H](O)COc1ccccc1-c1nccs1.O=C(O)C(F)(F)F` [Example 131]: the “Emax (%) ± SEM” value under setting [1] is recorded as 43.5 ± 1.4%.

For `CC(C)(Cc1ccc(Oc2ccc(C(N)=O)nc2)cc1)NC[C@H](O)COc1ccccc1-c1ccns1.O=C(O)C(F)(F)F` [Example 207], the “Emax (%) ± SEM” value under setting [1] amounted to 70.5 ± 4.9%.

Consider `CC(C)(Cc1ccc(Oc2cccnc2C#N)cc1)NC[C@H](O)COc1ccccc1-c1cscn1.Cl` [Example 241], for which the “Emax (%) ± SEM” value under setting [1] amounted to 47.0 ± 2.5%.

Take `CC(C)(Cc1ccc(Oc2ccc(C(N)=O)cn2)cc1)NC[C@H](O)COc1ccccc1-c1cnco1.Cl` [Example 46]: the “Emax (%) ± SEM” value under setting [1] was 64.7 ± 1.3%.

As for `CC(C)(Cc1ccc(Oc2ccc(S(C)(=O)=O)cc2)cc1)NC[C@H](O)COc1ccccc1-c1ccno1.O=C(O)C(F)(F)F` [Example 135], the “Emax (%) ± SEM” value under setting [1] turned out to be 35.2 ± 4.3%.

In the case of `CC(C)(Cc1ccc(Oc2ccc(C(N)=O)cn2)cc1)NC[C@H](O)COc1ccccc1N1CCOCC1.Cl.Cl` [Example 23], under setting [1], the “Emax (%) ± SEM” value came to 29.9 ± 3.2%.

For the molecule `CC(C)(Cc1ccc(Oc2ccc(C(N)=O)cn2)cc1)NC[C@H](O)COc1ccccc1-c1ccon1.Cl` [Example 32], under setting [1], the “Emax (%) ± SEM” value is 54.2 ± 5.0%.

As to `CC(C)(Cc1ccc(Oc2ccc(C(N)=O)cn2)cc1)NC[C@H](O)COc1ccccc1-c1csnn1.O=C(O)C(=O)O` [Example 44], the “Emax (%) ± SEM” value under setting [1] is 22.1 ± 3.3%.

For the molecule `CC(C)(Cc1ccc(Oc2ccc(C(N)=O)o2)cc1)NC[C@H](O)COc1ccccc1-c1cscn1.Cl` [Example 261], under setting [1], the “Emax (%) ± SEM” value is reported as 52.3 ± 6.6%.

With `CC(C)(Cc1ccc(Oc2ccc(S(C)(=O)=O)cc2F)cc1)NC[C@H](O)COc1ccccc1-c1nccs1.O=C(O)C(F)(F)F` [Example 224], the “Emax (%) ± SEM” value under setting [1] turned out to be 37.0 ± 0.3%.

For `CC(C)(Cc1ccc(Oc2ccc(C(N)=O)cn2)cc1)NC[C@H](O)COc1ccccc1-c1nc2ccccc2o1` [Example 26], the “Emax (%) ± SEM” value under setting [1] amounted to 41.4 ± 6.6%.

As to `CC(C)(Cc1ccc(Oc2ncccc2C(N)=O)cc1)NC[C@H](O)COc1ccccc1-c1cnco1.Cl` [Example 101], the “Emax (%) ± SEM” value under setting [1] stood at 67.4 ± 4.0%.

With `CC(C)(Cc1ccc(Oc2ncccc2C(N)=O)cc1)NC[C@H](O)COc1ccccc1N1CCOCC1.Cl.Cl` [Example 78], under setting [1], the “Emax (%) ± SEM” value was 30.3 ± 5.1%.

In the case of `CC(=O)c1ccc(-c2cccc(F)c2OC[C@@H](O)CNC(C)(C)Cc2ccc(Oc3ccc(C#N)cn3)cc2)s1.O=C(O)C(F)(F)F` [Example 429], under setting [3], the “Emax (%) ± SEM” value worked out at 84.7 ± 12.3%.

With `CC(C)(Cc1ccc(Oc2ccc(C#N)nc2)cc1)NC[C@H](O)COc1ccccc1-c1ccno1.O=C(O)C(F)(F)F` [Example 221], under setting [1], the “Emax (%) ± SEM” value is reported as 40.8 ± 8.3%.

Consider `CC(C)(Cc1ccc(Oc2ccc(C#N)nc2)cc1)NC[C@H](O)COc1ccccc1-c1ncco1.O=C(O)C(F)(F)F` [Example 364], for which the “Emax (%) ± SEM” value under setting [2] is on record as 69.2 ± 2.5%.

Turning to `CC(C)(Cc1ccc(Oc2ccc(C(N)=O)cn2)cc1)NC[C@H](O)COc1ccccc1-n1cccc1.Cl` [Example 29], the “Emax (%) ± SEM” value under setting [1] came to 48.4 ± 5.9%.

In the case of `CC(C)(Cc1ccc(Oc2ccc(C(N)=O)cn2)cc1)NC[C@H](O)COc1ccccc1-c1nc2ccccc2s1` [Example 27], the “Emax (%) ± SEM” value under setting [1] came out at 20.8 ± 8.5%.

For the molecule `CC(C)(Cc1ccc(Oc2ccc(C(N)=O)cn2)cc1)NC[C@H](O)COc1ccccc1N1CCCC1=O` [Example 22], the “Emax (%) ± SEM” value under setting [1] came out at 22.0 ± 5.3%.

By Emax is commonly meant the maximal effect, on the per cent scale that the assay sets. `CC(C)(Cc1ccc(Oc2ncccc2C(N)=O)cc1)NC[C@H](O)COc1ccccc1-c1ccc(C(=O)O)s1` [Example 449] gave a maximal effect (Emax) (% intrinsic activity relative to isoproterenol maximal response, SEM in brackets, c-AMP in transfected CHO cells) of 74.2%.

As for `CC(C)(Cc1ccc(Oc2ncccc2C(N)=O)cc1)NC[C@H](O)COc1cccc(-c2cc[nH]n2)c1` [Example 92], under setting [1], the “Emax (%) ± SEM” value is on record as 14.4 n = 1%.

Take `CC(C)(Cc1ccc(Oc2ccc(C(N)=O)cn2)cc1)NC[C@H](O)COc1ccccc1-c1ccoc1.Cl` [Example 43]: the “Emax (%) ± SEM” value under setting [1] worked out at 61.9 ± 2.5%.

For the molecule `CC(C)(Cc1ccc(Oc2ncccc2C(N)=O)cc1)NC[C@H](O)COc1ccccc1-n1ccnc1.Cl` [Example 104], the “Emax (%) ± SEM” value under setting [1] is recorded as 36.0 ± 5.0%.

For the molecule `CC(C)(Cc1ccc(Oc2ncccc2C(N)=O)cc1)NC[C@H](O)COc1ccccc1-c1ccon1.Cl` [Example 89], the “Emax (%) ± SEM” value under setting [1] is given as 71.8 ± 2.5%.

As for `CC(C)(Cc1ccc(Oc2nc(Cl)c(Cl)cc2Cl)cc1)NC[C@H](O)COc1ccccc1-c1cccs1.O=C(O)C(F)(F)F` [Example 156], the “Emax (%) ± SEM” value under setting [1] is 84.9 ± 0.2%.

On to `CC(C)(Cc1ccc(Oc2ccc(C#N)cn2)cc1)NC[C@H](O)COc1ccccc1-c1ccncn1` [Example 10], for which the “Emax (%) ± SEM” value under setting [1] came to 35.1 ± 0.9%.

As to `CC(C)(Cc1ccc(Oc2ccc(C#N)o2)cc1)NC[C@H](O)COc1ccccc1-c1cscn1.Cl` [Example 260], the “Emax (%) ± SEM” value under setting [1] came to 38.2 ± 2.0%.

On to `CC(C)(Cc1ccc(Oc2ncccc2C#N)cc1)NC[C@H](O)COc1ccccc1-c1ccon1.Cl` [Example 60], for which the “Emax (%) ± SEM” value under setting [1] came out at 70.8 ± 3.1%.

For `CC(=O)c1ccc(-c2ccccc2OC[C@@H](O)CNC(C)(C)Cc2ccc(Oc3ccc(C#N)cn3)cc2)s1.Cl` [Example 407], the “Emax (%) ± SEM” value under setting [3] was determined as 79.7 ± 7.6%.

Regarding `Cn1nccc1-c1ccccc1OC[C@@H](O)CNC(C)(C)Cc1ccc(Oc2ncccc2C(N)=O)cc1` [Example 66], the “Emax (%) ± SEM” value under setting [1] is listed as 26.6 n = 1%.

For the molecule `CC(C)(Cc1ccc(Oc2ncccc2C#N)cc1)NC[C@H](O)COc1ccccc1-c1ccn[nH]1` [Example 55], the “Emax (%) ± SEM” value under setting [1] stood at 37.5 n = 1%.

Take `CC(C)(Cc1ccc(Oc2ncccn2)cc1)NC[C@H](O)COc1ccccc1-c1cscn1.Cl` [Example 257]: the “Emax (%) ± SEM” value under setting [1] is reported as 49.9 ± 3.4%.

With `CC(C)(Cc1ccc(Oc2cccc(Cl)c2C#N)cc1)NC[C@H](O)COc1ccccc1-c1cccs1.O=C(O)C(F)(F)F` [Example 216], the “Emax (%) ± SEM” value under setting [1] is on record as 85.4 ± 4.9%.

On to `CC(C)(Cc1ccc(Oc2cccnc2C#N)cc1)NC[C@H](O)COc1ccccc1-c1ccco1.Cl` [Example 425], for which the “Emax (%) ± SEM” value under setting [3] is listed as 67.1 ± 3.0%.

Take `CC(C)(Cc1ccc(Oc2ccc(C(N)=O)cn2)cc1)NC[C@H](O)COc1cc(Cl)ccc1-c1nnco1` [Example 31]: under setting [1], the “Emax (%) ± SEM” value is on record as 12.1 n = 1%.

Turning to `CC(C)(Cc1ccc(Oc2ccc(C(N)=O)cc2)cc1)NC[C@H](O)COc1ccccc1-n1cccc1.Cl` [Example 269], the “Emax (%) ± SEM” value under setting [1] came to 41.3 ± 4.2%.

Regarding `Cc1ccc(-c2cccc(F)c2OC[C@@H](O)CNC(C)(C)Cc2ccc(Oc3ncccc3C#N)cc2)s1.Cl` [Example 437], under setting [3], the “Emax (%) ± SEM” value is on record as 72.0 ± 10.5%.

Consider `CC(C)(Cc1ccc(Oc2cnccn2)cc1)NC[C@H](O)COc1ccccc1-c1cccs1.O=C(O)C(F)(F)F` [Example 153], for which the “Emax (%) ± SEM” value under setting [1] is reported as 66.8 ± 5.5%.

As to `Cn1ccc(-c2ccccc2OC[C@@H](O)CNC(C)(C)Cc2ccc(Oc3ccc(C#N)cn3)cc2)n1` [Example 49], the “Emax (%) ± SEM” value under setting [1] worked out at 59.1 n = 1%.
